According to paper PMC8674134, “Safety and efficacy of avapritinib in advanced systemic mastocytosis: the phase 1 EXPLORER trial” (Nature Medicine, 2021):

Experiments:
[1] = test system: patients with AdvSM and other myeloid malignancies; test: Safety: adverse events graded by NCI CTCAE v4.03, phase 1 EXPLORER trial; format: in vivo
From the text: The safety population included all enrolled patients and was used to report AEs and PROs (in those who completed the questionnaire). The dose-determining population included all patients in a cohort in part 1 who received ≥21 prescribed avapritinib doses in C1 and completed follow-up through C1, or experienced DLT. The determination of the MTD and RP2D were based on the dose-determining population. […] The AdvSM safety population was also used to report AEs and OS. […] The response-evaluable population was used to report adjudicated response rates and PFS. The PK population comprised all patients with sufficient plasma concentration–time data to reliably estimate the PK parameters of avapritinib.
Safety assessments included determination of ECOG performance status, clinical laboratory testing, vital signs, electrocardiograms, brain imaging (MRI or CT scan) and physical examinations. AEs were graded according to National Cancer Institute Common Terminology Criteria (v4.03)[40]. Treatment-emergent AEs were defined as any AE occurring between the first dose of avapritinib through 30 d after the last dose of avapritinib, any event that was considered related to the study drug regardless of the start date of the event, or any event that was present at baseline but worsened intensity or was subsequently considered related to the study drug by the investigator.

SM-associated symptoms = test: On-study corticosteroid usage; format: in vivo, human
Experimental: At baseline, approximately one-third of patients overall (29 patients; 34%) were using corticosteroids. After baseline, as a result of improvement in SM-associated symptoms, 19 patients (66%) reduced their corticosteroid usage, of whom 12 (41%) patients discontinued corticosteroid use entirely, while 7 (24%) were able to reduce the dose.
Corticosteroid treatment, not exceeding doses administered during screening, was permitted; doses higher than 20 mg daily prednisone equivalent were avoided, and prolonged treatment (>14 d) with high-dose corticosteroids rendered patients ineligible for response assessment.

[2] = test system: advanced systemic mastocytosis (AdvSM); test: Kaplan–Meier estimates of DOR, PFS and OS; format: in vivo, human
Experimental: Spleen response was determined for patients with baseline splenomegaly (spleen ≥ 5 cm by palpation) and was assessed by palpation or spleen volume by imaging (that is, ≥35% reduction from baseline in spleen volume based on central imaging); presence of either criterion was considered a response. DOR started at the first evidence of a response in any evaluable C-finding (per mIWG-MRT-ECNM criteria) and ended at the time a response was lost (that is, loss of response per mIWG-MRT-ECNM criteria). For patients who were still responding at the time of analysis, DOR was censored at the latest time point that the patient is assessed as having clinical improvement or better. OS was analyzed in the safety population and was defined as the time from first dose to the time of death due to any cause. PK data were summarized for patients with sufficient plasma concentration–time data. Descriptive statistics were used to summarize PK parameters for each dose level, as appropriate.
ORR was defined as the proportion of patients with a confirmed best response of CR, CRh, PR or clinical improvement by mIWG-MRT-ECNM consensus criteria. Time to CR/CRh/PR was defined as the time from the start of treatment to the time a CR/CRh/PR by mIWG-MRT-ECNM was first met. DOR was defined as the time from first documented response to the date of first documented progressive disease/loss of response or death due to any cause, whichever occurred first. OS was defined as the time from the start of treatment to the date of death. PFS was defined as the time from the start of treatment to the date of first documented progressive disease or death due to any cause, whichever occurred first. Progressive disease was defined per mIWG-MRT-ECNM criteria as worsening of ≥1 baseline C-finding confirmed for at least 4 weeks, or progression to acute myeloid leukemia.
OS, PFS and DOR were determined by Kaplan–Meier estimates, and 95% CIs were estimated using Greenwood’s formula[41]. Comparisons between two Kaplan–Meier functions was performed using a log-rank test.

AdvSM symptom burden = test: Patient-reported outcomes: AdvSM-SAF total symptom score; format: in vivo, human; details: C11; P = 0.002, n = 20; baseline 19.1 points (n = 40)
From the text: The AdvSM-SAF comprises a ten-item questionnaire completed by the patient daily, specifically designed to assess symptoms related to AdvSM and measure the impact of treatments on patient symptom improvement. […] The AdvSM-SAF assesses the severity of eight symptoms of AdvSM, including abdominal pain, nausea, vomiting, diarrhea, spots, itching, flushing and fatigue over a 24-h period on a numerical rating scale, and also measures the frequency of vomiting and diarrhea by asking patients to enter a discrete numerical value. Data were analyzed at the item level, domain level and total score level. Domain level analyses are: • Gastrointestinal symptoms score (abdominal pain, nausea, vomiting and diarrhea severity (range 0–40)) • Skin symptom score (spots, itching and flushing severity (range 0–30))
The TSS was achieved by summing all eight severity items (range 0–80).

## Cn1cc(-c2cc3c(N4CCN(c5ncc([C@@](C)(N)c6ccc(F)cc6)cn5)CC4)ncnn3c2)cn1 [avapritinib]
[1]; human, in vivo
  Arthralgia AE, patients: 3%
  Cognitive effects (memory impairment, cognitive disorder, confusional state and encephalopathy), patients: 30%
  Cognitive effects leading to treatment discontinuation, patients: 3%
  Discontinuation due to related AEs: 10%
  Discontinuation due to unrelated AEs: 9%
  Grade 1 skin hypopigmentation, patients: 3%
  Hair color changes, patients: 19%
  Hypokalemia AE, patients: 3%
  Intracranial bleeding (ICB) in the absence of prior severe thrombocytopenia (platelets <50 × 10^9/l), patients: 1%
  Intracranial bleeding (ICB), patients: 13%
  Intracranial bleeding: cerebral hemorrhage: 0 n (%)
  Median time to first dose reduction: 8 weeks
  Patients with at least one dose reduction due to AEs: 72%
  Peripheral edema AE, patients: 45%
[1]; in vivo
  Anaphylactic reaction: one
  ICB events associated with antecedent severe thrombocytopenia (platelet count <50 × 10^9/l): seven
  ICB events, asymptomatic (grade 1): Five
  ICB events, grade 2: two
  ICB events, grade 3: one
[1]; of nine patients with ICB, associated with head trauma
  ICB events, grade 5: one
[1]; one (ICB) considered treatment related
  Deaths due to AEs: six
SM-associated symptoms; 7 of 29 patients using corticosteroids at baseline
  Patients able to reduce the corticosteroid dose: 24%
SM-associated symptoms; 12 of 29 patients using corticosteroids at baseline
  Patients who discontinued corticosteroid use entirely: 41%
SM-associated symptoms; 19 of 29 patients using corticosteroids at baseline
  Patients who reduced their corticosteroid usage: 66%
[2]; 95% CI, 22 months–not estimable
  Median duration of response (DOR): 38 months
[2]; 95% CI, 49–84%
  Estimated 24-month DOR rate: 67%
[2]; 95% CI, 72–96%
  Estimated 12-month DOR rate: 84%
[2]; AdvSM safety population (n = 69), median follow-up 23 months
  Median OS: not reached
[2]; overall AdvSM, 95% CI, 64–87%
  Estimated 24-month OS rate: 76%
[2]; patients with ASM
  Estimated 24-month OS rate: 100%
[2]; patients with MCL, 95% CI, 76–100%
  Estimated 24-month OS rate: 92%
[2]; patients with SM-AHN
  Estimated 24-month OS rate: 67%
[2]; patients with a MARS of 0–1, post hoc
  OS (24-month OS rate): 100%
[2]; response-evaluable population (n = 53), 95% CI, 48–79%
  Estimated PFS rate at 24 months: 63%
[2]; response-evaluable population (n = 53), 95% CI, 73–94%
  Estimated PFS rate at 12 months: 84%
[2]; six patients, during the study
  Patients who progressed to acute myeloid leukemia: 9%
AdvSM symptom burden
  Mean change from baseline AdvSM-SAF TSS: −10.9 points
